{"source": "ChEMBL document CHEMBL1122015", "about": "“Rigid analogues of dopamine: synthesis and interaction of 6-exo- and 6-endo-(3',4'-dihydroxyphenyl)-2-azabicyclo[2.2.2]octanes with dopamine uptake sites and receptors” (J Med Chem, 1982)", "key": {"Rattus norvegicus [1]": {"species_on_record": "Rattus norvegicus", "assay": "Effect on DA-sensitive adenylate cyclase activity in rat striatal homogenates", "format": "functional"}, "Rattus norvegicus [2]": {"species_on_record": "Rattus norvegicus", "assay": "Inhibition of the uptake of [3H]DA by corpus striatum synaptosomes of reserpine-pretreated rat", "format": "functional"}, "Rattus norvegicus [3]": {"species_on_record": "Rattus norvegicus", "assay": "Reported to half-maximally effective concentration of reserpine-pretreated rat"}}, "note": "pIC50: −log10 of the molar value."}
{"smiles": "Oc1ccc([C@H]2CC3CC[C@H]2NC3)cc1O", "note": "(relative stereo) [listing 1 of 2 here]", "values": [{"measurement": "Activity", "setting": "Rattus norvegicus [1]", "value": 93, "unit": "%"}]}
{"smiles": "Oc1ccc([C@H]2CC3CC[C@H]2NC3)cc1O", "note": "(stereo in doubt; 1) [listing 1 of 2 here]", "values": [{"measurement": "Activity", "setting": "Rattus norvegicus [1]", "value": 117, "unit": "%"}]}
{"smiles": "Oc1ccc([C@H]2CC3CC[C@H]2NC3)cc1O", "note": "(relative stereo) [listing 2 of 2 here]", "values": [{"measurement": "pIC50", "setting": "Rattus norvegicus [2]", "value": 4.49}]}
{"smiles": "Oc1ccc([C@H]2CC3CC[C@H]2NC3)cc1O", "note": "(stereo in doubt; 1) [listing 2 of 2 here]", "values": [{"measurement": "pIC50", "setting": "Rattus norvegicus [2]", "value": 3.96}]}
{"smiles": "NCCc1ccc(O)c(O)c1", "values": [{"measurement": "Activity", "setting": "Rattus norvegicus [1]", "value": 210, "unit": "%"}]}
{"smiles": "N[C@H]1C[C@@H]1c1ccccc1", "note": "(racemic)", "values": [{"measurement": "pIC50", "setting": "Rattus norvegicus [2]; Rattus norvegicus, Corpus striatum", "value": 6.05}, {"measurement": "pIC50", "setting": "Rattus norvegicus [3]", "value": 5.77}]}
